# Patent US10508104B2, “6-hydroxy-5-(phenyl/heteroarylsulfonyl)pyrimidin-4(1H)-one as APJ agonists” (Bristol-Myers Squibb Company, priority 2016, dated 2019)
# Target: human APJ receptor (Homo sapiens (Human), UniProt P35414)
# Experiment: Intracellular cAMP accumulation assay (APJ hcAMP, HTRF)
# Format: cell-based
# Conditions: HEK293 cells stably expressing human APJ receptor; inhibition of forskolin-mediated cAMP production; read-out: Human APJ cAMP EC50 Potency range
# Outline: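 HEK293 cells stably expressing human APJ, 5,000 per well, incubated 30 min at rt with compound, […] and 2 μM forskolin. cAMP measured by HTRF against a cAMP standard curve as inhibition of forskolin-driven production. EC50 from variable-slope sigmoidal fit.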
# human APJ receptor, sequence (P35414 whole entry): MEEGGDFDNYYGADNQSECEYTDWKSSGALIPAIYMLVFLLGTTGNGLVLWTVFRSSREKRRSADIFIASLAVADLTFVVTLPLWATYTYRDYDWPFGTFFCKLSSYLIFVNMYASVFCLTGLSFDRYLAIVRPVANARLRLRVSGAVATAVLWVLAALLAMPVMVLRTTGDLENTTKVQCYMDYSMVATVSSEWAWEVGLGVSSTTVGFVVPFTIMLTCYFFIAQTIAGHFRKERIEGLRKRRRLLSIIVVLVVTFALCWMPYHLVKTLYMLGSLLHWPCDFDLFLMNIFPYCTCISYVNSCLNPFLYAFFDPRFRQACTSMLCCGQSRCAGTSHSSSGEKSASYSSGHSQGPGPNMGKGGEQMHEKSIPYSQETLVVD
row,EC50 [nM],SMILES
1,0.01 to 10,"CCCCc1nc(=O)c(S(=O)(=O)c2ccc(Br)cn2)c(O)n1-c1c(OC)cccc1OC [Example 98, 5-((5-Bromopyridin-2-yl)sulfonyl)-2-butyl-1-(2,6-dimethoxyphenyl)-6-hydroxypyrimidin-4(1H)-one]"
2,0.01 to 10,"CCCCc1nc(=O)c(S(=O)(=O)C2CCN(C(=O)OC(C)(C)C)CC2)c(O)n1-c1c(OC)cccc1OC [Example 105, tert-Butyl 4-((2-butyl-1-(2,6-dimethoxyphenyl)-6-hydroxy-4-oxo-1,4-dihydropyrimidin-5-yl)sulfonyl)piperidine-1-carboxylate]"
3,10 to 100,"CCCCc1nc(=O)c(S(=O)(=O)C2CCNCC2)c(O)n1-c1c(OC)cccc1OC [Example 106, 2-Butyl-1-(2,6-dimethoxyphenyl)-6-hydroxy-5-(piperidin-4-ylsulfonyl)pyrimidin-4(1H)-one]"
4,0.01 to 10,"CCCCc1nc(=O)c(S(=O)(=O)C2CCN(C)CC2)c(O)n1-c1c(OC)cccc1OC [Example 107, 2-Butyl-1-(2,6-dimethoxyphenyl)-6-hydroxy-5-((1-methylpiperidin-4-yl)sulfonyl)pyrimidin-4(1H)-one]"
5,0.01 to 10,"CCCCc1nc(=O)c(S(=O)(=O)C2CCN(C(=O)c3nnc(C)o3)CC2)c(O)n1-c1c(OC)cccc1OC [Example 110, 2-Butyl-1-(2,6-dimethoxyphenyl)-6-hydroxy-5-((1-(5-methyl-1,3,4-oxadiazole-2-carbonyl)piperidin-4-yl)sulfonyl)pyrimidin-4(1H)-one]"
6,0.01 to 10,"CCCCc1nc(=O)c(S(=O)(=O)c2ccc(C(=O)NN)cc2)c(O)n1-c1c(OC)cccc1OC [Example 116, 4-((2-Butyl-1-(2,6-dimethoxyphenyl)-6-hydroxy-4-oxo-1,4-dihydropyrimidin-5-yl)sulfonyl)benzohydrazide]"
7,100 to 300,"CCCCc1nc(=O)c(S(=O)(=O)c2ccc(Br)cc2)c(O)n1[C@@H](C)c1ccccc1 [Example 118, (S)-5-((4-Bromophenyl)sulfonyl)-2-butyl-6-hydroxy-1-(1-phenylethyl)pyrimidin-4(1H)-one]"

# Same assay, conditions: human APJ, intracellular cAMP accumulation; read-out: Human APJ cAMP EC50 Potency range
row,EC50 [nM],SMILES
1,0.01 to 10,"CCCCc1nc(=O)c(S(=O)(=O)c2ccc(C(=O)N3CC(F)(F)C3)cc2)c(O)n1-c1c(OC)cccc1OC [Example 93, 2-butyl-5-[4-(3,3-difluoroazetidine-1-carbonyl)benzenesulfo-nyl]-1-(2,6-dimethoxyphenyl)-6-hydroxy-1,4-dihydropyrimidin-4-one]"
2,0.01 to 10,"CCCCc1nc(=O)c(S(=O)(=O)c2ccc(C(=O)N3CC(C)(O)C3)cc2)c(O)n1-c1c(OC)cccc1OC [Example 94, 2-butyl-1-(2,6-dimethoxyphenyl)-6-hydroxy-5-[4-(3-hydroxy-3-methylazetidine-1-carbonyl)benzenesulfo-nyl]-1,4-dihydropyrimidin-4-one]"
3,0.01 to 10,"CCCCc1nc(=O)c(S(=O)(=O)c2ccc(C(=O)N3CCC(F)(F)C3)cc2)c(O)n1-c1c(OC)cccc1OC [Example 95, 2-butyl-5-[4-(3,3-difluoropyrrolidine-1-carbonyl)benzene-sulfonyl]-1-(2,6-dimethoxyphenyl)-6-hydroxy-1,4-dihydropyrimidin-4-one]"
4,0.01 to 10,"CCCCc1nc(=O)c(S(=O)(=O)c2ccc(C(=O)N3CCOCC3)cc2)c(O)n1-c1c(OC)cccc1OC [Example 96, 2-butyl-1-(2,6-dimethoxyphenyl)-6-hydroxy-5-[4-(morpholine-4-carbonyl)benzenesulfo-nyl]-1,4-dihydropyrimidin-4-one]"
5,10 to 100,"CCCCc1nc(=O)c(S(=O)(=O)c2ccc(C(=O)Nc3ccc(F)nc3)cc2)c(O)n1-c1c(OC)cccc1OC [Example 97, 4-{[2-butyl-1-(2,6-dimethoxyphenyl)-6-hydroxy-4-oxo-1,4-dihydropyrimidin-5-yl]sulfonyl}-N-(6-fluoropyridin-3-yl)benzamide]"
6,0.01 to 10,"COc1cccc(OC)c1-n1c(CCC(C)C)nc(=O)c(S(=O)(=O)c2ccccn2)c1O [Example 99, 1-(2,6-dimethoxyphenyl)-6-hydroxy-2-(3-methylbutyl)-5-(pyridine-2-sulfonyl)-1,4-dihydropyrimidin-4-one]"
7,0.01 to 10,"CCCCc1nc(=O)c(S(=O)(=O)c2cc(C)oc2C)c(O)n1-c1c(OC)cccc1OC [Example 100, 2-butyl-1-(2,6-dimethoxyphenyl)-5-[(2,5-dimethylfuran-3-yl)sulfonyl]-6-hydroxy-1,4-dihydropyrimidin-4-one]"
8,0.01 to 10,"CCCCc1nc(=O)c(S(=O)(=O)c2ccc(C3CC3)cn2)c(O)n1-c1c(OC)cccc1OC [Example 101, 2-butyl-5-[(5-cyclopropylpyridin-2-yl)sulfonyl]-1-(2,6-dimethoxyphenyl)-6-hydroxy-1,4-dihydropyrimidin-4-one]"
9,0.01 to 10,"CCCCc1nc(=O)c(S(=O)(=O)c2ccc(C3CC3)cn2)c(O)n1-c1c(CC)cccc1CC [Example 102, 2-butyl-5-[(5-cyclopropylpyridin-2-yl)sulfonyl]-1-(2,6-diethylphenyl)-6-hydroxy-1,4-dihydropyrimidin-4-one]"
10,0.01 to 10,"CCCCc1nc(=O)c(S(=O)(=O)c2ccc(-c3ccc(F)cc3)cn2)c(O)n1-c1c(OC)cccc1OC [Example 103, 2-butyl-1-(2,6-dimethoxyphenyl)-5-{[5-(4-fluorophenyl)pyridin-2-yl]sulfonyl}-6-hydroxy-1,4-dihydropyrimidin-4-one]"
11,0.01 to 10,"CCCCc1nc(=O)c(S(=O)(=O)c2ccc(C)cn2)c(O)n1-c1c(CC)cccc1CC [Example 104, 2-butyl-1-(2,6-diethylphenyl)-6-hydroxy-5-[(5-methylpyridin-2-yl)sulfonyl]-1,4-dihydropyrimidin-4-one]"
12,0.01 to 10,"CCCCc1nc(=O)c(S(=O)(=O)C2CCN(CC)CC2)c(O)n1-c1c(OC)cccc1OC [Example 108, 2-butyl-1-(2,6-dimethoxyphenyl)-5-[(1-ethylpiperidin-4-yl)sulfonyl]-6-hydroxy-1,4-dihydropyrimidin-4-one]"
13,0.01 to 10,"CCCCc1nc(=O)c(S(=O)(=O)C2CCN(Cc3cccc(F)c3F)CC2)c(O)n1-c1c(CC)cccc1CC [Example 109, 2-butyl-1-(2,6-diethylphenyl)-5-({1-[(2,3-difluorophenyl)methyl]piperidin-4-yl}sulfonyl)-6-hydroxy-1,4-dihydropyrimidin-4-one]"
14,0.01 to 10,"CCCCc1nc(=O)c(S(=O)(=O)C2CCN(C(=O)c3ccccc3)CC2)c(O)n1-c1c(OC)cccc1OC [Example 111, 5-[(1-benzoylpiperidin-4-yl)sulfonyl]-2-butyl-1-(2,6-dimethoxyphenyl)-6-hydroxy-1,4-dihydropyrimidin-4-one]"
15,0.01 to 10,"CCCCc1nc(=O)c(S(=O)(=O)C2CCN(C(=O)c3ccc(Cl)cc3)CC2)c(O)n1-c1c(OC)cccc1OC [Example 112, 2-butyl-5-{[1-(4-chlorobenzoyl)piperidin-4-yl]sulfonyl}-1-(2,6-dimethoxyphenyl)-6-hydroxy-1,4-dihydropyrimidin-4-one]"
16,0.01 to 10,"CCCCc1nc(=O)c(S(=O)(=O)C2CCN(C(=O)C3CC3)CC2)c(O)n1-c1c(OC)cccc1OC [Example 113, 2-butyl-5-[(1-cyclopropanecarbonyl-piperidin-4-yl)sulfonyl]-1-(2,6-dimethoxyphenyl)-6-hydroxy-1,4-dihydropyrimidin-4-one]"
17,0.01 to 10,"CCCCc1nc(=O)c(S(=O)(=O)C2CCN(C(=O)CC(F)(F)F)CC2)c(O)n1-c1c(OC)cccc1OC [Example 114, 2-butyl-1-(2,6-dimethoxyphenyl)-6-hydroxy-5-{[1-(3,3,3-trifluoropropanoyl)piper-idin-4-yl]sulfonyl}-1,4-dihydropyrimidin-4-one]"
18,0.01 to 10,"CCCCc1nc(=O)c(S(=O)(=O)c2ccc(-c3nnc(C4CC4)o3)cc2)c(O)n1-c1c(OC)cccc1OC [Example 117, 2-butyl-5-[4-(5-cyclopropyl-1,3,4-oxadiazol-2-yl)benzenesulfonyl]-1-(2,6-dimethoxyphenyl)-6-hydroxy-1,4-dihydropyrimidin-4-one]"
19,10 to 100,"CCCCc1nc(=O)c(S(=O)(=O)c2ccc(Br)cc2)c(O)n1[C@@H](COC)c1ccccc1 [Example 119, 5-(4-bromobenzenesulfonyl)-2-butyl-6-hydroxy-1-[(1R)-2-methoxy-1-phenylethyl]-1,4-dihydropyrimidin-4-one]"
20,10 to 100,"CCCCc1nc(=O)c(S(=O)(=O)c2ccc(Br)cc2)c(O)n1[C@H]1CCc2ccccc21 [Example 120, 5-(4-bromobenzenesulfonyl)-2-butyl-1-[(1S)-2,3-dihydro-1H-inden-1-yl]-6-hydroxy-1,4-dihydropyrimidin-4-one]"
21,100 to 300,"CCCCc1nc(=O)c(S(=O)(=O)c2ccc(Br)cc2)c(O)n1[C@H](C)c1cccc(C#N)c1 [Example 121, 3-[(1R)-1-[5-(4-bromobenzenesulfonyl)-2-butyl-6-hydroxy-4-oxo-1,4-dihydropyrimidin-1-yl]ethyl]benzonitrile]"
22,10 to 100,"CCCCc1nc(=O)c(S(=O)(=O)c2ccc(Br)cc2)c(O)n1[C@@H](C)c1cccc(C#N)c1 [Example 122, 3-[(1S)-1-[5-(4-bromobenzenesulfonyl)-2-butyl-6-hydroxy-4-oxo-1,4-dihydropyrimidin-1-yl]ethyl]benzonitrile]"
23,100 to 300,"COC[C@@H](c1ccccc1)n1c(CC2CC2)nc(=O)c(S(=O)(=O)c2ccc(Br)cc2)c1O [Example 123, 5-(4-bromobenzenesulfonyl)-2-(cyclopropylmethyl)-6-hydroxy-1-[(1R)-2-methoxy-1-phenylethyl]-1,4-dihydropyrimidin-4-one]"
24,10 to 100,"CCCCc1nc(=O)c(S(=O)(=O)c2ccc(Br)cc2)c(O)n1[C@@H](CC)c1cccc(OC)c1 [Example 124, 5-(4-bromobenzenesulfonyl)-2-butyl-6-hydroxy-1-[(1S)-1-(3-methoxyphenyl)propyl]-1,4-dihydropyrimidin-4-one]"
25,100 to 300,"CCCc1nc(=O)c(S(=O)(=O)c2ccc(Br)cc2)c(O)n1[C@@H](COC)c1ccccc1 [Example 125, 5-(4-bromobenzenesulfonyl)-6-hydroxy-1-[(1R)-2-methoxy-1-phenylethyl]-2-propyl-1,4-dihydropyrimidin-4-one]"
